Tested on: Bovine aortic endothelial cells (BAECs)
Assay: Shear stress-induced NO production by endothelial cells in the two-compartment flow chamber, NO electrode measurement
Assay type: cell-based
Conditions: 1 mM L-NAME
Description: Bovine aortic endothelial cells (BAECs) were cultured in Dulbecco's modified Eagle's medium (Mediatech Cellgro), supplemented with 10% fetal bovine serum (Sigma), 2 mmol/l L-glutamine (Mediatech Cellgro), and penicillin-streptomycin (Mediatech Cellgro). The cells were grown to confluency and subsequently plated onto the lower surface of individual polyester Transwell® membranes (Corning Transwell Permeable Supports having a 24 mm diameter culture area with 3 μm pores). The Transwell® membranes were then placed in an incubator overnight, inverted and cultured for 1 day before conducting the experimental study. The Transwell® membranes were subsequently washed 3 three times with a solution of Dulbecco's Phosphate Buffered Saline (PBS) with calcium/magnesium (Sigma) supplemented with 70 μM L-arginine (L-arg) (Sigma) and inserted into the flow chamber.
The flow chamber included an electrode and equipment for measuring NO (TBR4100 4-channel Free Radical Analyzer and 200 μm diameter mini sensors for NO measurements ISO-NOPF). The electrodes were frequently recoated with nafion (Sigma) and re-calibrated during the experimental study to improve selectivity. The recoating process involved at least two dip/dry sessions. The electrodes were calibrated by the decomposition of a NO donor S-nitroso-N-acetyl-penicillamine (SNAP) using Cu(II). The SNAP was prepared by dissolving 5 mg EDTA and 5.0 mg+/−2.0 mg of SNAP in 250 mL HPLC grade water. The electrode was immersed in 12 mL of 0.1 M copper(II) sulfate in distilled water for about 1 to about 2 hours until the electrode stabilized. Aliquots of SNAP were sequentially added in an amount of about 10 μL, 20 μL, 40 μL, 80 μL after each signal reached a plateau. A multipoint calibration plot was created using Data-Trax software (produced by WPI). The sampling rate was 10 samples/s. The change in recorded potential was converted to corresponding molarities of NO produced by SNAP addition. The efficiency of the conversion of SNAP to NO was 0.6. Electrode sensitivity was at least about 10 pA/nM. […] The temperature probe supplied by WPI was pre-scaled using a two-point entry of known temperatures (0.03125V=1° C., 0.625V=20° C.).
The dimensions (in cm) of the flow channel were about: 4.57 W×12.19 L×0.025 H. The flow inlet and outlet had large reservoirs with sampling ports. A glass coverslip covered an opening in the bottom plate, allowing visualization of the cell layer and the electrode on an inverted microscope. As shown in FIGS. 5-6, endothelial cells were grown on the lower surface of a Transwell® porous membrane, which fit into the flow chamber flush with the upper plate of the flow chamber. […] Below the Transwell® membrane, fluid flowed through the parallel plate channel that defined the lower compartment, exposing the endothelial cells to uniform shear stress. Above the Transwell® membrane, a stagnant upper fluid compartment, having a small volume housed the NO electrode and temperature sensor. This design placed the electrode out of the fluid flow avoiding problems associated with potential flow sensitivities, flow disturbances and chamber leaking at the electrode insertion site. Furthermore, due to the small volume and zero flux condition at the other boundaries of the stagnant upper fluid compartment and the short diffusion distance through the membrane, the concentration of NO in the upper fluid compartment was nearly uniform and rapidly equilibrated with the concentration in the cell layer. The electrode was lowered into the upper compartment of the flow chamber until it rested on the surface of the Transwell® membrane at a fixed distance from the ECs of about 10 μm equal to the thickness of the membrane. This configuration allowed the NO generated by the cells to be measured abluminally from the endothelial cell layer. Due to the temperature sensitivity of the NO electrode, the flow chamber was enclosed in a water bath at 37° C. in order to prevent heat loss and temperature fluctuations. […]

COC(=O)[C@@H](N)CCCNC(=N)N[N+](=O)[O-] [L-NAME, Nω-Nitro-L-arginine methyl ester]
RNO (NO production rate) as % of RNO estimated from untreated ECs, hyperbolic model (L-arg also in perfusate, shear stress change 0.1 to 20 dyn/cm^2, hyperbolic model fit): about 57.6% | RNO (NO production rate) as % of RNO estimated from untreated ECs, linear model (L-arg also in perfusate, shear stress change 0.1 to 20 dyn/cm^2, linear model fit): about 57.3% | RNO (NO production rate) as % of RNO estimated from untreated ECs, sigmoidal model (L-arg also in perfusate, shear stress change 0.1 to 20 dyn/cm^2, sigmoidal model fit): about 58.3% | reduction of steady-state NO concentration changes in response to shear stress step changes after treatment with L-NAME (pH 7.2, step changes from 0.1 dyn/cm^2 to 1, 6, 10 or 20 dyn/cm^2, vs before treatment, FIG. 10): 40% | effect on shear stress-induced NO concentration changes (Example 1, in words) (flow-induced shear stress stimulation): partially attenuated | steady-state NO concentration changes after treatment, as % of the untreated values (average) (shear stress step changes from 0.1 dyn/cm^2, FIG. 10): 60% | effect on flow induced NO response (Example 2) (step changes from about 1 to about 5 and about 1 to about 10 dyn/cm^2): significantly reduced

From US9535058B2, “Flow chamber analyte detection method” (Drexel University, priority 2010, dated 2017)
